Experimental data: PubChem BioAssay (NCI)
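All cell lines were grown in 96-well plates and treated with compound for 48 hours. GI50: concentration for 50% inhibition of growth. TGI: concentration producing complete growth inhibition.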

Experiments:
Experiment in all cases: NCI tumour cell line growth inhibition, 48 h
HCT-116 colon = test system: HCT-116 colon
KM12 colon = test system: KM12 colon
OVCAR-8 ovarian = test system: OVCAR-8 ovarian
SK-MEL-28 melanoma = test system: SK-MEL-28 melanoma
SK-OV-3 ovarian = test system: SK-OV-3 ovarian
SNB-75 CNS = test system: SNB-75 CNS
EKVX NSCLC = test system: EKVX NSCLC
SK-MEL-5 melanoma = test system: SK-MEL-5 melanoma
A498 renal = test system: A498 renal
MDA-MB-231 breast = test system: MDA-MB-231 breast

SMILES	TGI (HCT-116 colon) [µM]	TGI (KM12 colon) [µM]	TGI (OVCAR-8 ovarian) [µM]	TGI (SK-MEL-28 melanoma) [µM]	TGI (SK-OV-3 ovarian) [µM]	TGI (SNB-75 CNS) [µM]	TGI (EKVX NSCLC) [µM]	TGI (SK-MEL-5 melanoma) [µM]	TGI (A498 renal) [µM]	GI50 (EKVX NSCLC) [µM]	GI50 (HCT-116 colon) [µM]	GI50 (KM12 colon) [µM]	GI50 (MDA-MB-231 breast) [µM]	TGI (MDA-MB-231 breast) [µM]	GI50 (OVCAR-8 ovarian) [µM]	GI50 (SK-MEL-28 melanoma) [µM]	GI50 (SK-MEL-5 melanoma) [µM]	GI50 (SK-OV-3 ovarian) [µM]	GI50 (A498 renal) [µM]	GI50 (SNB-75 CNS) [µM]
O=C(CO)CC(=O)C(=O)Nc1cccc(C(F)(F)F)c1	> 100	> 100	> 100	> 100	> 100	> 100														
CC1(C)C2=CCCC(=O)[C@@]2(C)CC[C@@H]1O	> 100	> 100	> 100	> 100	> 100	> 100	> 100	> 100												
CCCCCCCCCCCCCP(=O)(OC)OC	33.8	31.9	31.9	39.1	33.3	38.1	39.5	32.6												
c1ccc(N2CCN(CCCN3CCc4c([nH]c5ccccc45)C3c3cccnc3)CC2)cc1 (configuration not stated)	> 100	> 100	> 100	> 100	> 100	> 100	> 100	> 100	> 100											
CC1OC(OC2C(O)C(OCCc3ccc(O)c(O)c3)OC(CO)C2OC(=O)/C=C/c2ccc(O)c(O)c2)C(O)C(O)C1O (configuration not stated)	> 100	> 100	> 100	> 100	> 100		> 100	> 100		27.6	> 100	> 100	16.3	34.7	> 100	52.7	> 100	> 100		
CN(CCc1ccccn1)/[N+]([O-])=N/O (tested in a mixture with another compound)	> 100	> 100	> 100	> 100		> 100	> 100	> 100												
CCCc1nn(C)c(CCC(=O)N(Cc2ccccc2)Cc2ccccc2)c1CC	> 100	> 100	> 100	> 100	> 100	> 100	> 100	> 100	> 100											
CCN(CC)CCCNc1nccc2c(C)c3[nH]c4ccncc4c(=O)c3cc12	2.03	15.5	2.36	13.4	16	12.6	35.7	14.1	24											
CCCCCCCCC1C(C)c2c([nH]c3ccccc23)C2C(=O)N(c3ccccc3)C(=O)C21 (configuration not stated)	12.5	13.5	28.4	34.3	51.1	39.9	51.1	31.7	36.9											
CSC(=NC(=O)c1ccccc1)SCCSC(=NC(=O)c1ccccc1)SC	> 100	> 100	> 100	> 100		> 100	> 100	> 100	> 100											
CC(=O)OC(C)(C)C[N+](=O)[O-]	> 100	> 100	> 100	> 100	> 100	> 100	> 100													
CC1(C)C=C(N2CCN(C3=CC(C)(C)NC(C)(C)C3)CC2)CC(C)(C)N1	> 100	> 100	> 100	> 100	> 100	> 100	> 100	> 100	> 100											
CC(/C=C1\CCC(CN(C)C)C1=O)c1cccc(Br)c1 (configuration not stated)	31	23.9	36.8	31.5	> 100		42	18.8	> 58.5											
Cc1ccc(-c2nc3ccccc3c(=O)n2NC2OC(CO)C(O)C(O)C2O)cc1 (configuration not stated)	> 100	> 100	> 100	> 100	> 100	> 100	> 100	> 100	> 100											
CC(=O)CCn1[nH]c(=O)c(Cl)c(Cl)c1=O	> 100	> 100	> 100	> 100		> 100	> 100	> 100	> 100											
O=C(CC1(O)C(=O)Nc2c(Cl)cc(Cl)cc21)c1ccc([N+](=O)[O-])cc1 (configuration not stated)	> 59.2	> 100	> 87.9	> 59.6	> 100	> 87.6	> 61.9	> 57.3	> 67.9											
C=C1CCCC2OC(OC)CCC12 (configuration not stated)	> 100	> 100	> 100		> 100	> 100	> 100	> 100	> 100											

SMILES	TGI (HCT-116 colon) [µM]	TGI (KM12 colon) [µM]	TGI (OVCAR-8 ovarian) [µM]	TGI (SK-MEL-28 melanoma) [µM]	TGI (SK-OV-3 ovarian) [µM]	TGI (SNB-75 CNS) [µM]	TGI (EKVX NSCLC) [µM]	TGI (SK-MEL-5 melanoma) [µM]	TGI (A498 renal) [µM]	GI50 (EKVX NSCLC) [µM]	GI50 (HCT-116 colon) [µM]	GI50 (KM12 colon) [µM]	GI50 (MDA-MB-231 breast) [µM]	TGI (MDA-MB-231 breast) [µM]	GI50 (OVCAR-8 ovarian) [µM]	GI50 (SK-MEL-28 melanoma) [µM]	GI50 (SK-MEL-5 melanoma) [µM]	GI50 (SK-OV-3 ovarian) [µM]	GI50 (A498 renal) [µM]	GI50 (SNB-75 CNS) [µM]
COC(=O)/C(=N\Nc1nc(=S)[nH]n1N)C(C#N)c1ccc(Cl)cc1 (configuration not stated)	> 100	> 100	> 100	> 100	> 100	> 100	> 100		> 100											
CCCCCC1CC=CC(NC(=O)OCc2ccccc2)C1/C=C/CCCC1OCCO1 (configuration not stated)	> 100	> 100	> 100	> 100	> 100	> 100	> 100	> 100	98.7											
O=C1C(c2ccccc2)=[N+]([O-])c2cc([N+](=O)[O-])ccc21	53.4	47.5	32.6	48.4	> 100	> 100	34.5	39.2	> 100											
Cc1cc(=O)n2c(cc3cccccc32)n1		> 100	> 100	> 100		> 100	> 100		> 100											
CC(C)c1ccc(C(O)(C(=O)O)c2ccc(C(C)C)cc2)cc1	> 100	> 100	> 100	> 100	> 100	> 100	> 100	> 100	> 100											
NS(=O)(=O)c1ccc(-n2nc(-c3ccccc3)cc2-c2cc(O)ccc2O)cc1	> 100	> 100	> 100	> 100			> 100	> 100		> 100	40.8	38.5	25.6	72	> 100	94.3	> 100			
Nc1nc(N)c(CCCCc2ccccc2)c(/C=C/c2ccc([N+](=O)[O-])cc2)n1	6.52	10.8	12.7	12.8	39.1	9.87	> 100	16.3												
CC(O)(c1ccc(OCCC[N+](C)(C)C)cc1)C(C)(O)c1ccc(OCCC[N+](C)(C)C)cc1 (configuration not stated)	> 100	> 100	> 100	> 100	> 100	> 100	> 100		> 100											
C[C@H]1[C@H](C)CC[C@]2(C(=O)O)CCC3(COC(=O)/C=C/c4ccc(O)cc4)C(=CCC4[C@@]5(C)CC[C@H](O)C(C)(C)C5CC[C@]43C)[C@H]12 (some centres not stated)	14.2	16.3	26.5	22.9	6.99	23.8	24.6	24.4	15.3											
C=C(C)C1CC=C(C)C(O)([C@@]2(O)C[C@H](C(=C)C)CC=C2C)C1 (some centres not stated)	40.1	43.4	35.5	95.9	64.1	54.2		28.3	58.2											
Cc1nccc2c3ccc(OCc4cn(-c5ccc(Br)cc5)nn4)cc3n(CCCc3ccccc3)c12	> 100	> 100	5.09	3.45	> 100	3.98	> 100	> 100	> 100	> 100	7.2	2.73			2.12	1.72	3.92	31.2	> 100	1.54
CCC1=CCC(P(=O)(c2ccccc2)c2ccccc2)CC1C (configuration not stated)	63.8	> 100	> 100	> 100	> 100	49.7	> 100	70.8	> 100											
CC[C@@]1(O)C(=O)OCc2c1cc1n(c2=O)Cc2cc3cccc(N)c3nc2-1	> 100	> 100	> 100	> 100	29.7	16.1	> 100	> 100	60.3	33	16.8	> 100			12.1	> 100	8.75	5.13	7.17	2.72
CC1=C(C(=O)Nc2ccccc2C)C(c2ccccc2O)C(C(=O)Nc2ccccc2C)=C(C)N1	36.9	31.2	40.2	59.1		65.8	> 100	61.8	64.8											
C/C(CC(=O)Nc1cccc([N+](=O)[O-])c1)=N/NC(N)=S	> 100	> 100	> 100	> 100	> 100	> 100	> 100	> 100												
COC(=O)/C=C(C)/C=C/c1c(C)c(C(C)=O)c(C)n1C	> 100	> 100	> 100		> 100		> 100		> 100											
